Like-named read-outs stand apart in the source and are kept apart here.
Experiments:
[1] = test system: MES-induced seizures in mice; assay: Maximal electroshock seizure (MES) test; type: in vivo; details: for protection in MES screening / responders at 100 mg/kg: 100 mg/kg i.p., 0.5 h; for protection in MES screening: four mice; for responders at 100 mg/kg / ED50: Mus musculus, ip; for responders at 100 mg/kg: read-out: MES screening: number of mice protected/number of mice tested (converted); for ED50: mice, pretreatment time 0.5 h, (95% confidence limits)
Procedure, shortened: (§1)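 Adult male Albino Swiss mice (22–26 g), compounds suspended in 1% aqueous Tween 80, single i.p. injection, tested 0.5 h post-dose. Screening at 100 mg/kg with four mice per group; ED50 from 3–4 groups of eight. PI = TD50 (chimney test) / ED50.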

recombinant human CYP2C9 = molecular target: T1, recombinant human CYP2C9 (Homo sapiens, UniProt P11712); assay: CYP2C9 P450-Glo luminescent assay; type: in vitro ADME
T1 construct: purchased Promega (Madison, WI, USA)
Method: The risk of potential DDIs was predicted with use of luminescent CYP3A4, 2D6, and 2C9 P450-Glo assays (Figure 6). […] However, such an effect was also observed in our previous studies for other pyrrolidine-2,5-dione derivatives. […] However, the potential risk of DDI of 60 was still assessed as very low, and was compared to the selective CYP2C9 inhibitor sulfaphenazole (Figure 6C).
The data were analyzed with one-way ANOVA, followed by Bonferroni’s Multiple Comparison Post Test (Graph Pad Prism 8.0.1 software, San Diego, CA, USA)): * p < 0.05, ** p < 0.01, *** p < 0.001 **** p < 0.0001. The compounds were examined in triplicate.

[2] = test system: 6 Hz (32 mA) seizures in mice; assay: 6 Hz (32 mA) psychomotor seizure model; type: in vivo; details: Mus musculus, ip; for responders at 100 mg/kg: 100 mg/kg i.p., 0.5 h; for ED50: mice, pretreatment time 0.5 h, (95% confidence limits)
Procedure, shortened: as §1

TRPV1 (VR1) (h) = molecular target: T2, TRPV1 (VR1) (h) (Homo sapiens, UniProt Q8NER1); assay: TRPV1 (VR1) (h) antagonist effect functional assay; type: cell-based; details: human recombinant CHO cells
T2 construct: host or cells: CHO

[3] = molecular target: T3, Calcium Cav1.2 channels (dihydropyridine site) (Homo sapiens, UniProt Q13936); assay: Calcium Cav1.2 channel binding (dihydropyridine site, antagonist radioligand); details: 10 µM; human recombinant HEK-293 cell; read-out: % Inhibition of Control Specific Binding, Cav1.2 (dihydropyridine site)
T3 construct: host or cells: HEK-293

hepatoma HepG2 cell line = assay: Hepatotoxicity, HepG2 viability (MTS); type: cell-based; details: 72 h treatment
Method: Figure 7 The effect of 53, 60, and 62, cytostatic drug doxorubicin (DX) and the mitochondrial toxin CCCP on the hepatoma HepG2 cell line viability after 72 h of incubation at 37 °C, 5% CO2. The data were analyzed with one-way ANOVA, followed by Bonferroni’s Comparison Test (Graph Pad Prism 8.0.1 software, San Diego, CA, USA)): ** p < 0.01, **** p < 0.0001 vs. negative control (DMSO 1% in growth media).

[4] = test system: 6 Hz (44 mA) seizures in mice; assay: 6 Hz (44 mA) seizure model of drug-resistant epilepsy; type: in vivo; details: Mus musculus, ip, pretreatment time 0.5 h, (95% confidence limits)
Method: (§2) Adult male Albino Swiss mice that weighed between 22 and 26 g were used in the in vivo studies. They were housed under standardized housing conditions in colony cages and had free access to food as well as tap water. The animals were left to adapt under laboratory conditions for 7 days. All procedures involving animals and their care were performed in accordance with the current European Community and Polish legislation on animal experimentation.
(§3) In the initial screening studies, four mice per group were randomly assigned to each experimental group (each mouse was used only once). To evaluate the ED50 or TD50 values, 3–4 groups that consisted of eight animals were injected with various doses of tested compounds. The protective indexes (PIs) for the compounds that were investigated and reference ASDs were calculated by dividing the TD50 value, as determined in the chimney test (or rotarod test), by the respective ED50 value, as determined in the MES, scPTZ, or 6 Hz (32 mA or 44 mA) tests (PI = TD50/ED50). The PIs is a measure of the potential therapeutic window of the tested agent.
All substances were suspended in Tween 80 (1% aqueous solution) and administered i.p. as a single injection at a dose of 10 mL/kg. […]
Taking into consideration the potent protection of 53 and 60 in the 6 Hz (32 mA) seizure model, these compounds were also evaluated by applying a higher current intensity of 44 mA. […]

[5] = molecular target: T4, Cav1.2 (h) calcium ion channel (Homo sapiens, UniProt Q13936); assay: Cav1.2 (h) calcium ion channel cell-based antagonist calcium flux assay; details: HEK293, human recombinant HEK-293 cell, read-out: % Inhibition of control agonist response, Cav1.2 calcium flux
T4 construct: Eurofins
Method: Binding/functional studies were carried out commercially in Eurofins Laboratories (Poitiers, France) and Eurofins Panlabs Discovery Services Taiwan, Ltd. (New Taipei City, Taiwan) using testing procedures that were reported previously (for details see Table S2).
Table S2. Radioligand binding and functional assays. […]
TRPV1 (VR1) (h) (antagonist effect)
Cav1.2 (L-type) (h) calcium ion channel cell-based antagonist calcium flux assay
Assays were performed commercially in Eurofins Laboratories (Poitiers, France) or Eurofins Panlabs Discovery
Services Taiwan, Ltd. (New Taipei City, Taiwan). […]

[6] = test system: scPTZ-induced seizures in mice; assay: Subcutaneous pentylenetetrazole (scPTZ) seizure test; type: in vivo; details: 100 mg/kg i.p., 0.5 h; for protection in scPTZ screening: four mice
Method: as §2, §3
All substances were suspended in Tween 80 (1% aqueous solution) and administered i.p. as a single injection at a dose of 10 mL/kg. On each day of experimentation, fresh solutions were prepared. The results are summarized in Table S1 (screening data) and Table 2 (ED50, TD50, and PI values, see Section 3 Results and Discussion).
The detailed in vivo procedures are described elsewhere: the maximal electroshock seizure test (MES), the subcutaneous pentylenetetrazole seizure test (scPTZ), the 6 Hz psychomotor seizure model (32 mA and 44 mA), and the chimney test.
The basic animal seizure models such as the MES, 6 Hz (32 mA or 44 mA), and the scPTZ are still a standard in the discovery and development of new ASDs. In vivo screening approaches enable the identification of compounds with unidentified and potentially novel mechanisms of action besides substances with well-established pharmacodynamics. Bearing in mind the aforementioned facts, compounds 45–66 were initially studied in the MES test and in the 6 Hz seizure model (32 mA) after intraperitoneal (i.p.) administration at a screening dose of 100 mg/kg in mice at a time point of 0.5 h (the screening group consisted of four mice, the results obtained are summarized in Table S1). It should be stressed that the MES test is an experimental model of human tonic–clonic epilepsy as well as partial convulsions with or without secondary generalization, the 6 Hz model (32 mA) corresponds to human focal epilepsy, whereas the scPTZ test relates to human generalized absence or myoclonic seizures.

[7] = four mice, read-out: protection in 6 Hz (32 mA) screening
[8] = read-out: 6 Hz (32 mA) screening: number of mice protected/number of mice tested (converted)

T2 sequence (Q8NER1 whole entry): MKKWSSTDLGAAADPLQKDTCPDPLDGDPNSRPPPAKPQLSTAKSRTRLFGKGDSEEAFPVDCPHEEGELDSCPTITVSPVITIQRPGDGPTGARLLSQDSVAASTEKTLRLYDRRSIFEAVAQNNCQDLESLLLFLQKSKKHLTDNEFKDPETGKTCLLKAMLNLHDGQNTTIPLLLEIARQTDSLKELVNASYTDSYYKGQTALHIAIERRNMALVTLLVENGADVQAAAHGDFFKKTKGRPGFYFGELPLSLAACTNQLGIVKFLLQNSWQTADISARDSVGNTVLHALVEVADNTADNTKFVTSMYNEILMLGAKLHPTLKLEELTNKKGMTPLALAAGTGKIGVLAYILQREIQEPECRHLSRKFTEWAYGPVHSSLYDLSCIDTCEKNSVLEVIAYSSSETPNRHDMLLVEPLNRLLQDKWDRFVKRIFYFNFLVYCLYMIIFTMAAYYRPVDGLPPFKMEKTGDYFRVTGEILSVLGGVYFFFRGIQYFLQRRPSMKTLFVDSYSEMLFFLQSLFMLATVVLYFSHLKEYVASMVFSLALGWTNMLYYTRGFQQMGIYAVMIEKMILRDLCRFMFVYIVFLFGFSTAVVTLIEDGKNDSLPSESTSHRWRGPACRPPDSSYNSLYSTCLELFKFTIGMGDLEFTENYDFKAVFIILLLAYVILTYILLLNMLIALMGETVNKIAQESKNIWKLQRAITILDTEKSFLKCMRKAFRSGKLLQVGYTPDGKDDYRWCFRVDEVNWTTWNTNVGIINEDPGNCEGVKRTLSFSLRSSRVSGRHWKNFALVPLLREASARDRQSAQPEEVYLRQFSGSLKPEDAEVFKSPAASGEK
T3 sequence (Q13936 whole entry): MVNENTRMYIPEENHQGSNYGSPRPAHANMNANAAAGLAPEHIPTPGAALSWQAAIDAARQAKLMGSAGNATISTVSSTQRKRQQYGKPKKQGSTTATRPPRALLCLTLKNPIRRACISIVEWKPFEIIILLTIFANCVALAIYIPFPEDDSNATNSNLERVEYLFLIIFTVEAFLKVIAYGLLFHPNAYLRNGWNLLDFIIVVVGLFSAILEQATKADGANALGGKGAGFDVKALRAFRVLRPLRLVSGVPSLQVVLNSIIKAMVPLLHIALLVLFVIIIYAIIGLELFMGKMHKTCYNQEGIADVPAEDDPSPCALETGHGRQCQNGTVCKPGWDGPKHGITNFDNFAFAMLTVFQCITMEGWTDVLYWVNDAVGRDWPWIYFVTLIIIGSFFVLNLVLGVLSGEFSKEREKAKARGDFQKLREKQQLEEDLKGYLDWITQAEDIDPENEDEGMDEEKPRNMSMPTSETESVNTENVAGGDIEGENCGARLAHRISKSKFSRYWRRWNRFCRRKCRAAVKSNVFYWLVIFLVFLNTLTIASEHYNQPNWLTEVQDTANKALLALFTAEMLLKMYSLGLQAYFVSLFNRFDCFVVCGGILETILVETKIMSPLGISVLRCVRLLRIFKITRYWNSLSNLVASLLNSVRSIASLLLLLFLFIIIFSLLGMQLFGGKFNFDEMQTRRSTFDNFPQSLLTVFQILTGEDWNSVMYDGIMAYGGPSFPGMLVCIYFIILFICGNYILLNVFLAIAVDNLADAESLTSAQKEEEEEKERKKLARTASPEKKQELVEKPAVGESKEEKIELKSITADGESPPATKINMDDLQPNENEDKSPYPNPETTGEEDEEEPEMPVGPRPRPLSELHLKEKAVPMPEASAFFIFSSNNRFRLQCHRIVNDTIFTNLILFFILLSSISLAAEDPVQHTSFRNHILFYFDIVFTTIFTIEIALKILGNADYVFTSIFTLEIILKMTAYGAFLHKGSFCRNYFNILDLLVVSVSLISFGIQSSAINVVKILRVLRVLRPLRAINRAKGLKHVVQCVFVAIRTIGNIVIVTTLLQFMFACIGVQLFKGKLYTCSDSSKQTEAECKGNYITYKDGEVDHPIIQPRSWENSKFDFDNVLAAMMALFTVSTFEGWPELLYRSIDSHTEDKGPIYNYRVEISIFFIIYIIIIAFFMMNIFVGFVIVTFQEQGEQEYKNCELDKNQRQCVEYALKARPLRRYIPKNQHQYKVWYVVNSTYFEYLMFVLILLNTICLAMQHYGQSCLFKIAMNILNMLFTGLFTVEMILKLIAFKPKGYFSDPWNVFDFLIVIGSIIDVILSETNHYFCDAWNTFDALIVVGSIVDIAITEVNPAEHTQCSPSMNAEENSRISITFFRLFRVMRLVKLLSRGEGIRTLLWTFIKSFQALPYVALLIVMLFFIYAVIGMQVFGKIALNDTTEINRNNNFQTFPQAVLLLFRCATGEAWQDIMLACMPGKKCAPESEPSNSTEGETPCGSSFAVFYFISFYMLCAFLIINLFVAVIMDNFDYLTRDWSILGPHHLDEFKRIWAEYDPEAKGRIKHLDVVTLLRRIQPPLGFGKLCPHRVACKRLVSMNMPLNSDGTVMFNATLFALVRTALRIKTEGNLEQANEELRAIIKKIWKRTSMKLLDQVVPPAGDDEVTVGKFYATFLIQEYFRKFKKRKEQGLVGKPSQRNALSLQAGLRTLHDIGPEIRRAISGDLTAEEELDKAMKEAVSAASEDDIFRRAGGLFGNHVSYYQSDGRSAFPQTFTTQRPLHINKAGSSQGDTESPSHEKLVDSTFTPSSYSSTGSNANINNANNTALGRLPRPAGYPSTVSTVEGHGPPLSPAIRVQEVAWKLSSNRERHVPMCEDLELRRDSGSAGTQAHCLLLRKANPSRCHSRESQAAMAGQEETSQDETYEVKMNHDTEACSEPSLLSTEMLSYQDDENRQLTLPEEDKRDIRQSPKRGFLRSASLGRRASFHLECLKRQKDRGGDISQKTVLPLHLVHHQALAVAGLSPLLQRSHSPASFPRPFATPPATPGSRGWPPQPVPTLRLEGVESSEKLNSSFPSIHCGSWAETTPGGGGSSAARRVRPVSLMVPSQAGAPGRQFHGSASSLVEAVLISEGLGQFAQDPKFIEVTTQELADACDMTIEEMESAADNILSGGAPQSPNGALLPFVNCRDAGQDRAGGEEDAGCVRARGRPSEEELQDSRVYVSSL
T3 sequence (Q08289 whole entry partner): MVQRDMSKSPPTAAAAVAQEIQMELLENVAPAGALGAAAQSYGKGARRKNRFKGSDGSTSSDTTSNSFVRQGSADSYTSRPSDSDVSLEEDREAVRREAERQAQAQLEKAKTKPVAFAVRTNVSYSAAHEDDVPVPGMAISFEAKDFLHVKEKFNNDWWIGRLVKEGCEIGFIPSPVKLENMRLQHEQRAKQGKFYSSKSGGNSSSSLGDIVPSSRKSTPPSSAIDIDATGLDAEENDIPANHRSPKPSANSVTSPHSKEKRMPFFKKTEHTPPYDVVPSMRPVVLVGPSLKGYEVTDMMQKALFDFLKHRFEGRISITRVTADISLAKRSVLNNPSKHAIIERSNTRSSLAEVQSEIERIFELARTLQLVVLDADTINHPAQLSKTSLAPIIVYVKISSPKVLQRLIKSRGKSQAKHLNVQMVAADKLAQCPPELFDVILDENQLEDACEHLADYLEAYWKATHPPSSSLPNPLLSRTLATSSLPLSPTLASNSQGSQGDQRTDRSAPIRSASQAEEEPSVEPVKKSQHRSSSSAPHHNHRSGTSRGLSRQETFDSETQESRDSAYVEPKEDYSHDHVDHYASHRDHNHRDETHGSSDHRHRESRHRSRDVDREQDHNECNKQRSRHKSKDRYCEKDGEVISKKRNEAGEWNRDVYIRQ
T3 sequence (P54289 25-956 partner limits assumed): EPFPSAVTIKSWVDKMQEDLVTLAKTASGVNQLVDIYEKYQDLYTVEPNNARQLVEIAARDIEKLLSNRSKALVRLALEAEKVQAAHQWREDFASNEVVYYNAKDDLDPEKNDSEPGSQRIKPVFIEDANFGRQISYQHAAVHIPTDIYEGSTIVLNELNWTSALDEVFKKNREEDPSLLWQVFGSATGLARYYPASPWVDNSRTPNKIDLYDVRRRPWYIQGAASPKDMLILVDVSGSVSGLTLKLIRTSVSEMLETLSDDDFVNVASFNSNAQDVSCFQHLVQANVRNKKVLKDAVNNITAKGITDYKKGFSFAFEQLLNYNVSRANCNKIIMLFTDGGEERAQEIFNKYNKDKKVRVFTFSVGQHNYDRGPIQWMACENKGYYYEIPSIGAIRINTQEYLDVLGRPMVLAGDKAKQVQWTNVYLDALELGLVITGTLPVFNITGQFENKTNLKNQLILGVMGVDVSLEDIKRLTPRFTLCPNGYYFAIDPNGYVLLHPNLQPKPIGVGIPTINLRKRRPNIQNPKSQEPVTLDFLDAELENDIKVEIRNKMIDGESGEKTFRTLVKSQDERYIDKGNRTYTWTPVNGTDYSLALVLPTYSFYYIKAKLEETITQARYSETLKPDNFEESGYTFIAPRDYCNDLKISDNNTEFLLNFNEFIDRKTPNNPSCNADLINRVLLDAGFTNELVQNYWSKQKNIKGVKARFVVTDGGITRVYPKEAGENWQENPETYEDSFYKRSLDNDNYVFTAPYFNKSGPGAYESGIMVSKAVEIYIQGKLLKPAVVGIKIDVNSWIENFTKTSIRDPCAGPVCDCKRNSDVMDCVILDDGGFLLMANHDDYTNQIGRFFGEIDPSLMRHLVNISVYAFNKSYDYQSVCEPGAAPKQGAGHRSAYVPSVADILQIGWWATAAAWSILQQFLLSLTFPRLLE
T3 sequence (P54289 957-1103 partner limits assumed): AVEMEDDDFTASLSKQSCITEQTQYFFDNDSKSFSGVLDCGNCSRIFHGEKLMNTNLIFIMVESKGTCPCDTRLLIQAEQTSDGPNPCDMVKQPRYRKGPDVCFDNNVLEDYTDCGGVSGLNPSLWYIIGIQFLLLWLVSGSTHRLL

IC50 (TRPV1 (VR1) (h)) [µM] | Kb (TRPV1 (VR1) (h)) [µM] | Structure (SMILES) | protection in MES screening [1] [%] | responders at 100 mg/kg [1] [%] | ED50 [1] [mg/kg] | influence on CYP2C9 activity (recombinant human CYP2C9) | responders at 100 mg/kg [2, 7] [%] | responders at 100 mg/kg [2, 8] [%] | ED50 [2] [mg/kg] | inhibition at 10 µM [3] [%] | effect on HepG2 cell viability (hepatotoxicity) (hepatoma HepG2 cell line) | ED50 [4] [mg/kg] | inhibition at 10 µM [5] [%] | scPTZ screening: number of mice protected/number of mice tested [6] | protection in scPTZ screening [6] [%]
13 | 1.7 | CC(=O)NC(C(=O)N1CCN(c2cccc(C(F)(F)F)c2)CC1)c1ccccc1 (stereo not drawn) [Compound 53, N-(2-oxo-1-phenyl-2-(4-(3-(trifluoromethyl)phenyl)piperazin-1-yl)ethyl)acetamide] | 75 | 75 | 89.7 | weak inhibition effect | 100 | 100 | 29.9 | 4 | observed only at 100 µM | 68 | 55 | 1/4 | 25
11 | 1.5 | CC(=O)NC(C(=O)N1CCN(c2cccc(OC(F)(F)F)c2)CC1)c1ccccc1 (stereo not drawn) [Compound 60, N-(2-oxo-1-phenyl-2-(4-(3-(trifluoromethoxy)phenyl)piperazin-1-yl)ethyl)acetamide] | 75 | 75 | 73.6 | a little stronger influence, observed also at 10 µM | 100 | 100 | 24.6 | 7 | observed only at 100 µM | 56.3 | 31 | 1/4 | 25
